Laboratory results: patent publication US6783949B1, “Processes for determining whether a test substance contains lipases or lipase inhibitors” (Aventis Pharma Deutschland GmbH, priority 1999, dated 2004)

Molecular target: T1, HSL (Rattus norvegicus, UniProt P15304)
T1 construct: The partially purified HSL can be stored at −70° C. for 4 to 6 weeks; from tissue; host or cells: rat epididymal fat cells (male Wistar rats)
T1 sequence (P15304 1-768 isoform P15304-2): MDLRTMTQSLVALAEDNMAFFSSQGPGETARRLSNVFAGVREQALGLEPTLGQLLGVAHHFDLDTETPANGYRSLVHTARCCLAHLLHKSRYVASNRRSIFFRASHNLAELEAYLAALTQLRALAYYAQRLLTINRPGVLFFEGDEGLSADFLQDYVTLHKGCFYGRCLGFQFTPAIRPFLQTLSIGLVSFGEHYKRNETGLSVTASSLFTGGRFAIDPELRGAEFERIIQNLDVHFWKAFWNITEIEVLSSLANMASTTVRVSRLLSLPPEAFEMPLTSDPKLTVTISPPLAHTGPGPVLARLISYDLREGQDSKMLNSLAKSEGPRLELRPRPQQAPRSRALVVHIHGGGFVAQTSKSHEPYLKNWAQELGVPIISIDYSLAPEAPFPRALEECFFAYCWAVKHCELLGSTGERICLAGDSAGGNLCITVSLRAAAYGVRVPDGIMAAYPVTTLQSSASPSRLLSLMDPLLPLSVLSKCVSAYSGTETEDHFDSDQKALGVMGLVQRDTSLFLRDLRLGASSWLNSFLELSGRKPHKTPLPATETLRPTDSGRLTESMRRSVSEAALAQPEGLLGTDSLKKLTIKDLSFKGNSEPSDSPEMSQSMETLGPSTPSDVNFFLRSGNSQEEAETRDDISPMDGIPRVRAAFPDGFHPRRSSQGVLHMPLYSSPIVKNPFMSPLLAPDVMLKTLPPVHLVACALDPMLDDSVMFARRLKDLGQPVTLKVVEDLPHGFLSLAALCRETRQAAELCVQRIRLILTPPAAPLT
Experiment: Indirect NAG assay (extinction increase at 481 nm)
Format: biochemical
Conditions: for Absorption change, Decrease, 550 nm / Absorption change, Increase, 481 nm / Increase in the absorption at 481 nm: NAG 0.05 mg/ml
Description: A typical reaction is carried out at 30° C. for 60 min, for example in 1.5 ml Eppendorf vessels or 96-hole plates. […] 180 μl of the substrate solution (20 μg/ml of phosphatidylcholine, 10 μg/ml of phosphatidylinositol, 50 μg/ml of NAG in assay buffer) are added. After a preincubation for 15 min at 30° C., 20 μl of HSL in assay buffer are pipetted in and the extinction is immediately measured (see above) at 481 nm in a cuvette photometer (0.5 ml cuvette) or microtiter plate reader. After a certain incubation time, which is variable and depends on the chosen enzyme concentration and can be between 2 and 240 minutes, in this case incubation at 30° C. for 60 min, the extinction is measured again. The increase in the extinction in the yellow region, in this case at 481 nm, is a measure of the enzyme activity.
Isolated rat fat cells are obtained from epididymal fatty tissue from untreated male rats (Wistar, 220-250 g) by collagenase treatment according to published processes. The fat cells from 10 rats are washed three times by flotation with 50 ml each of homogenization buffer ([…], pH 7.4, 0.25 M sucrose, 1 mM ethylenediamine-N,N,N′,N′-tetraacetic acid (EDTA), 1 mM dithiothreitol (DTT), 10 μg/ml of leupeptin, 10 μg/ml of antipain, 20 μg/ml of pepstatin) and finally taken up in 10 ml of homogenization buffer. The fat cells are homogenized in a Teflon-in-glass homogenizer (Braun-Melsungen) by 10 strokes at 1500 rpm and 15° C. The homogenizate is centrifuged (Sorvall SM24 tubes, 5000 rpm, 10 min, 4° C.). The […] between the overlying fatty layer and the pellet is removed and the centrifugation is repeated. The […] resulting from this is centrifuged again (Sorvall SM24 tubes, 20,000 rpm, 45 min, 4° C.). […] After incubation for 60 min at 4° C. (shake at intervals of 15 min), the batch is centrifuged (Sorvall SM24 tubes, 3000 rpm, 10 min, 4° C.). The supernatant is brought to pH 5.2 by addition of glacial acetic acid and incubated at 4° C. for 30 min. […] The suspension is dialyzed overnight at 4° C. against 25 mM TRIS/HCl, pH 7.4, 50% glycerol, 1 mM DTT, and 10 μg/ml of leupeptin, pepstatin, and antipain and then applied to a hydroxylapatite column (0.1 g per 1 ml of suspension, equilibrated with 10 mM potassium phosphate, pH 7.0, 30% glycerol, 1 mM DTT). The column is washed with four volumes of equilibration buffer at a flow rate of 20 to 30 ml/h. The HSL is eluted with a volume of equilibration buffer which contains 0.5 M potassium phosphate, then dialyzed (see above) and concentrated 5 to 10 times by ultrafiltration (Amicon Diaflo PM 10 filter) at 4° C. The partially purified HSL can be stored at −70° C. for 4 to 6 weeks.
6 mg of phosphatidylcholine and 6 mg of phosphatidylinositol are dissolved in 1 ml of chloroform each. 10 mg of NAG are dissolved in 1 ml of chloroform. […] The chloroform (225 μl total volume) is completely removed by overblowing with a stream of N2. The dried substrate can be stored at 4° C. for up to three days. For the preparation of the phospholipid vesicles/micelles having intercalated NAG (on the test day), the dried substrate is taken up in 20 ml of assay buffer (25 mM TRIS/HCl, pH 7.4; 150 mM NaCl) and two ultrasonic treatments with an ultrasonic probe (Branson Sonifier type 11, standard microtip): 1st treatment setting 2, 2×1 min, in between in each case 1 min on ice; 2nd treatment setting 4, 2×1 min, in between in each case 1 min on ice. […] Before use as a substrate (within the next 2 h), the solution is additionally incubated on ice for 15 min.
The assay is carried out at 30° C. for 60 min in 1.5 ml Eppendorf vessels or 96-hole plates.

Compound: O=C(CCCCCCCCCCCNc1ccc([N+](=O)[O-])c2nonc12)OCC(O)CO (stereo not drawn) [Compound (3)]
- Signal strength (20 μg of protein, 0.05 mg/ml of NAG): 0.6 to 0.7 OD
- Absorption change, Decrease, 550 nm (HSL 1 μg, 60 min): 866 ± 94 arb. units
- Absorption change, Increase, 481 nm (HSL 1 μg, 60 min): 156 ± 21 arb. units
- Absorption change, Decrease, 550 nm (HSL 2 μg, 60 min): 841 ± 78 arb. units
- Absorption change, Increase, 481 nm (HSL 2 μg, 60 min): 347 ± 40 arb. units
- Increase in the absorption at 481 nm (HSL 5 μg, 1 min): 12 ± 2 arb. units
- Increase in the absorption at 481 nm (HSL 5 μg, 2 min): 23 ± 4 arb. units
- Increase in the absorption at 481 nm (HSL 5 μg, 5 min): 45 ± 9 arb. units
- Increase in the absorption at 481 nm (HSL 5 μg, 10 min): 105 ± 18 arb. units
- Increase in the absorption at 481 nm (HSL 5 μg, 15 min): 155 ± 20 arb. units
- Increase in the absorption at 481 nm (HSL 5 μg, 20 min): 219 ± 31 arb. units
- Increase in the absorption at 481 nm (HSL 5 μg, 30 min): 295 ± 47 arb. units
- Increase in the absorption at 481 nm (HSL 5 μg, 45 min): 453 ± 52 arb. units
- Absorption change, Decrease, 550 nm (HSL 5 μg, 60 min): 779 ± 82 arb. units
- Absorption change, Increase, 481 nm (HSL 5 μg, 60 min): 791 ± 88 arb. units
- Increase in the absorption at 481 nm (HSL 5 μg, 60 min): 677 ± 70 arb. units
- Increase in the absorption at 481 nm (HSL 5 μg, 75 min): 831 ± 92 arb. units
- Increase in the absorption at 481 nm (HSL 5 μg, 90 min): 995 ± 82 arb. units
- Increase in the absorption at 481 nm (HSL 5 μg, 120 min): 1455 ± 102 arb. units
- Increase in the absorption at 481 nm (HSL 5 μg, 180 min): 1937 ± 121 arb. units
- Absorption change, Decrease, 550 nm (HSL 7.5 μg, 60 min): 759 ± 69 arb. units
- Absorption change, Increase, 481 nm (HSL 7.5 μg, 60 min): 1066 ± 120 arb. units
- Increase in the absorption at 481 nm (HSL 10 μg, 1 min): 19 ± 4 arb. units
- Increase in the absorption at 481 nm (HSL 10 μg, 2 min): 51 ± 9 arb. units
- Increase in the absorption at 481 nm (HSL 10 μg, 5 min): 102 ± 19 arb. units
- Increase in the absorption at 481 nm (HSL 10 μg, 10 min): 185 ± 26 arb. units
- Increase in the absorption at 481 nm (HSL 10 μg, 15 min): 288 ± 39 arb. units
- Increase in the absorption at 481 nm (HSL 10 μg, 20 min): 395 ± 36 arb. units
- Increase in the absorption at 481 nm (HSL 10 μg, 30 min): 517 ± 67 arb. units
- Increase in the absorption at 481 nm (HSL 10 μg, 45 min): 830 ± 57 arb. units
- Absorption change, Decrease, 550 nm (HSL 10 μg, 60 min): 650 ± 61 arb. units
- Absorption change, Increase, 481 nm (HSL 10 μg, 60 min): 1255 ± 141 arb. units
- Increase in the absorption at 481 nm (HSL 10 μg, 60 min): 1179 ± 110 arb. units
- Increase in the absorption at 481 nm (HSL 10 μg, 75 min): 1487 ± 104 arb. units
- Increase in the absorption at 481 nm (HSL 10 μg, 90 min): 1844 ± 130 arb. units
- Increase in the absorption at 481 nm (HSL 10 μg, 120 min): 2745 ± 195 arb. units
- Increase in the absorption at 481 nm (HSL 10 μg, 180 min): 3521 ± 254 arb. units
- Absorption change, Decrease, 550 nm (HSL 15 μg, 60 min): 540 ± 55 arb. units
- Absorption change, Increase, 481 nm (HSL 15 μg, 60 min): 2351 ± 205 arb. units
- Increase in the absorption at 481 nm (HSL 20 μg, 1 min): 5 ± 7 arb. units
- Increase in the absorption at 481 nm (HSL 20 μg, 2 min): 78 ± 12 arb. units
- Increase in the absorption at 481 nm (HSL 20 μg, 5 min): 193 ± 36 arb. units
- Increase in the absorption at 481 nm (HSL 20 μg, 10 min): 423 ± 62 arb. units
- Increase in the absorption at 481 nm (HSL 20 μg, 15 min): 617 ± 70 arb. units
- Increase in the absorption at 481 nm (HSL 20 μg, 20 min): 865 ± 93 arb. units
- Increase in the absorption at 481 nm (HSL 20 μg, 30 min): 1143 ± 216 arb. units
- Increase in the absorption at 481 nm (HSL 20 μg, 45 min): 1877 ± 206 arb. units
- Absorption change, Decrease, 550 nm (HSL 20 μg, 60 min): 287 ± 51 arb. units
- Absorption change, Increase, 481 nm (HSL 20 μg, 60 min): 2867 ± 199 arb. units
- Increase in the absorption at 481 nm (HSL 20 μg, 60 min): 2510 ± 295 arb. units
- Increase in the absorption at 481 nm (HSL 20 μg, 75 min): 3067 ± 310 arb. units
- Increase in the absorption at 481 nm (HSL 20 μg, 90 min): 3527 ± 188 arb. units
- Increase in the absorption at 481 nm (HSL 20 μg, 120 min): 4941 ± 410 arb. units
- Increase in the absorption at 481 nm (HSL 20 μg, 180 min): 5712 ± 399 arb. units
- Absorption change, Decrease, 550 nm (HSL 25 μg, 60 min): 198 ± 44 arb. units
- Absorption change, Increase, 481 nm (HSL 25 μg, 60 min): 3428 ± 270 arb. units
- Absorption change, Decrease, 550 nm (HSL 30 μg, 60 min): 115 ± 35 arb. units
- Absorption change, Increase, 481 nm (HSL 30 μg, 60 min): 3973 ± 244 arb. units
- Increase in the absorption at 481 nm (HSL 40 μg, 1 min): 91 ± 14 arb. units
- Increase in the absorption at 481 nm (HSL 40 μg, 2 min): 89 ± 32 arb. units
- Increase in the absorption at 481 nm (HSL 40 μg, 5 min): 395 ± 62 arb. units
- Increase in the absorption at 481 nm (HSL 40 μg, 10 min): 784 ± 88 arb. units
- Increase in the absorption at 481 nm (HSL 40 μg, 15 min): 1060 ± 144 arb. units
